Measured values taken from US6124269A, “2-Halo-6-O-substituted ketolide derivatives” (priority 1998, dated 2000).
Converted amounts (≈) assume the structure as drawn.

Tests used:
Type in all cases: cell-based
[1] = tested on: Streptococcus pyogenes EES61; test: In vitro agar dilution MIC, organism code LL; settings: unit assumed
Procedure: (§1) Representative compounds of the present invention were assayed in vitro for antibacterial activity as follows: Twelve petri dishes containing successive aqueous dilutions of the test compound mixed with 10 mL of sterilized Brain Heart Infusion (BHI) agar (Difco 0418-01-5) were prepared. Each plate was inoculated with 1:100 (or 1:10 for slow-growing strains, such as Micrococcus and Streptococcus) dilutions of up to 32 different microorganisms, using a Steers replicator block. The inoculated plates were incubated at 35-37° C. for 20 to 24 hours. In addition, a control plate, using BHI agar containing no test compound, was prepared and incubated at the beginning and end of each test.
(§2) An additional plate containing a compound having known susceptibility patterns for the organisms being tested and belonging to the same antibiotic class as the test compound was also prepared and incubated as a further control, as well as to provide test-to-test comparability.
(§3) After incubation, each plate was visually inspected. The minimum inhibitory concentration (MIC) was defined as the lowest concentration of drug yielding no growth, a slight haze, or sparsely isolated colonies on the inoculum spot as compared to the growth control.

[2] = tested on: Streptococcus pyogenes 930; test: In vitro agar dilution MIC, organism code MM; settings: unit assumed
Procedure: as §1, §2, §3

[3] = tested on: Streptococcus pyogenes PIU 2548; test: In vitro agar dilution MIC, organism code NN; settings: unit assumed
Procedure: as §1, §2, §3

[4] = tested on: Haemophilis influenzae DILL AMP R; test: In vitro agar dilution MIC, organism code WW; settings: unit assumed
Procedure: as §1, §2, §3

[5] = tested on: Streptococcus pneumoniae ATCC 6303; test: In vitro agar dilution MIC, organism code XX; settings: unit assumed
Procedure: as §1, §2, §3

[6] = tested on: Streptococcus pneumoniae 5979; test: In vitro agar dilution MIC, organism code ZZ; settings: unit assumed
Procedure: as §1, §2, §3

[7] = tested on: Streptococcus pneumoniae 5649; test: In vitro agar dilution MIC, organism code ZZA; settings: unit assumed
Procedure: as §1, §2, §3

[8] = tested on: Staphylococcus aureus ATCC 6538P; test: In vitro agar dilution MIC, organism code AA; settings: unit assumed
Procedure: as §1, §2, §3

[9] = tested on: Staphylococcus aureus A5177; test: In vitro agar dilution MIC, organism code BB; settings: in µg/mL (unit assumed)
Procedure: as §1, §2, §3

[10] = tested on: Staphylococcus aureus A-5278; test: In vitro agar dilution MIC, organism code CC; settings: unit assumed
Procedure: as §1, §2, §3

[11] = tested on: Staphylococcus aureus CMX 642A; test: In vitro agar dilution MIC, organism code DD; settings: Table 1B, unit assumed
Procedure: as §1, §2, §3

[12] = tested on: Staphylococcus aureus NCTC10649M; test: In vitro agar dilution MIC, organism code EE; settings: Table 1B, unit assumed
Procedure: as §1, §2, §3

[13] = tested on: Staphylococcus aureus CMX 553; test: In vitro agar dilution MIC, organism code FF; settings: Table 1B, unit assumed
Procedure: as §1, §2, §3

[14] = tested on: Staphylococcus aureus 1775; test: In vitro agar dilution MIC, organism code GG; settings: Table 1B, unit assumed
Procedure: as §1, §2, §3

[15] = tested on: Staphylococcus epidermidis 3519; test: In vitro agar dilution MIC, organism code HH; settings: Table 1B, in µg/mL (unit assumed)
Procedure: as §1, §2, §3

[16] = tested on: Enterococcus faecium ATCC 8043; test: In vitro agar dilution MIC, organism code II; settings: Table 1B, unit assumed
Procedure: as §1, §2, §3

[17] = tested on: Streptococcus bovis A-5169; test: In vitro agar dilution MIC, organism code JJ; settings: Table 1B, unit assumed
Procedure: as §1, §2, §3

[18] = tested on: Streptococcus agalactiae CMX 508; test: In vitro agar dilution MIC, organism code KK; settings: Table 1B, unit assumed
Procedure: as §1, §2, §3

[19] = tested on: Micrococcus luteus ATCC 9341; test: In vitro agar dilution MIC, organism code OO; settings: Table 1B, unit assumed
Procedure: as §1, §2, §3

[20] = tested on: Micrococcus luteus ATCC 4698; test: In vitro agar dilution MIC, organism code PP; settings: Table 1B, in µg/mL (unit assumed)
Procedure: as §1, §2, §3

Escherichia coli JUHL = test: In vitro agar dilution MIC, organism code QQ; settings: Table 1B, in µg/mL (unit assumed)
Procedure: as §1, §2, §3

Escherichia coli SS = test: In vitro agar dilution MIC, organism code RR; settings: Table 1B, in µg/mL (unit assumed)
Procedure: as §1, §2, §3

Escherichia coli DC-2 = test: In vitro agar dilution MIC, organism code SS; settings: Table 1B, unit assumed
Procedure: as §1, §2, §3

Candida albicans CCH 442 = test: In vitro agar dilution MIC, organism code TT; settings: Table 1B, unit assumed
Procedure: as §1, §2, §3

[21] = tested on: Mycobacterium smegmatis ATCC 114; test: In vitro agar dilution MIC, organism code UU; settings: Table 1B, in µg/mL (unit assumed)
Procedure: as §1, §2, §3

[22] = tested on: Nocardia asteroides ATCC 9970; test: In vitro agar dilution MIC, organism code VV; settings: Table 1B, in µg/mL (unit assumed)
Procedure: as §1
as §2, with “comparability. Erythromycin A was used for this purpose.” for “comparability.”
as §3

[23] = tested on: Streptococcus pneumoniae GYR 1171; test: In vitro agar dilution MIC, organism code YY; settings: Table 1B, unit assumed
Procedure: as §1, §2, §3

`CC[C@H]1OC(=O)[C@H](C)C(=O)[C@H](C)[C@@H](O[C@@H]2O[C@H](C)C[C@H](N(C)C)[C@H]2O)[C@](C)(OC/C=C/c2cnc3ccccc3c2)C[C@@H](C)C(=O)[C@H](C)[C@H]2NC(=O)O[C@@]21C` [Standard A, reference compound] was tested, and the MIC ([1]; Table 1D) was 0.03 µg/mL (≈ 0.0392 µM), the MIC ([2]; Table 1D) was 1 µg/mL (≈ 1.31 µM) and the MIC ([3]; Table 1D) was 0.25 µg/mL (≈ 0.326 µM). It also gave an MIC ([4]; Table 1D) of 2 µg/mL (≈ 2.61 µM), an MIC ([5]; Table 1D) of 0.03 µg/mL (≈ 0.0392 µM) and an MIC ([6]; Table 1D) of 16 µg/mL (≈ 20.9 µM). For the same compound, the MIC ([7]; Table 1D) was 0.25 µg/mL (≈ 0.326 µM).
`CC[C@H]1OC(=O)[C@H](C)C(=O)[C@H](C)[C@@H](O[C@@H]2O[C@H](C)C[C@H](N(C)C)[C@H]2O)[C@](C)(OC)C[C@@H](C)C2=NCCN3C(=O)O[C@@]1(C)[C@H]3[C@H]2C` [Standard (X is H), reference compound] was tested, and the MIC ([8]; Table 1C) was 0.2 µg/mL (≈ 0.314 µM), the MIC ([9]; Table 1C) was 0.2 and the MIC ([10]; Table 1C) was greater than 100 µg/mL. It also gave an MIC ([1]; Table 1C) of 0.02 µg/mL (≈ 0.0314 µM), an MIC ([2]; Table 1C) greater than 100 µg/mL and an MIC ([3]; Table 1C) of 0.39 µg/mL (≈ 0.611 µM). The MIC ([4]; Table 1C) was 4 µg/mL (≈ 6.27 µM), the MIC ([5]; Table 1C) was 0.06 µg/mL (≈ 0.0941 µM) and the MIC ([6]; Table 1C) was greater than 128 µg/mL. The MIC ([7]; Table 1C) was 0.5 µg/mL (≈ 0.784 µM).
`CC[C@H]1OC(=O)C(C)(F)C(=O)[C@H](C)[C@@H](O[C@@H]2O[C@H](C)C[C@H](N(C)C)[C@H]2O)[C@](C)(OC)C[C@@H](C)C2=NCCN3C(=O)O[C@@]1(C)[C@H]3[C@H]2C` (stereo partly shown) [Example 1] gave an MIC ([8]; Table 1B) of 0.1 µg/mL (≈ 0.152 µM), an MIC ([8]; Table 1C) of 0.1 µg/mL (≈ 0.152 µM) and an MIC ([9]; Table 1B) of 0.1. It also gave an MIC ([9]; Table 1C) of 0.1, an MIC ([10]; Table 1B) greater than 100 µg/mL and an MIC ([10]; Table 1C) greater than 100 µg/mL. For the same compound, the MIC [11] was 0.1 µg/mL (≈ 0.152 µM), the MIC [12] was 0.2 µg/mL (≈ 0.305 µM) and the MIC [13] was 0.1 µg/mL (≈ 0.152 µM). The MIC [14] was greater than 100 µg/mL, the MIC [15] was 0.2 and the MIC [16] was 0.05 µg/mL (≈ 0.0762 µM). The MIC [17] was 0.01 µg/mL (≈ 0.0152 µM), the MIC [18] was 0.02 µg/mL (≈ 0.0305 µM) and the MIC ([1]; Table 1B) was 0.01 µg/mL (≈ 0.0152 µM). It also gave an MIC ([1]; Table 1C) of 0.03 µg/mL (≈ 0.0457 µM), an MIC ([2]; Table 1B) greater than 100 µg/mL and an MIC ([2]; Table 1C) greater than 128 µg/mL. It also gave an MIC ([3]; Table 1B) of 0.2 µg/mL (≈ 0.305 µM), an MIC ([3]; Table 1C) of 0.5 µg/mL (≈ 0.762 µM) and an MIC [19] of 0.02 µg/mL (≈ 0.0305 µM). The MIC [20] was 0.2, the MIC (Escherichia coli JUHL) was greater than 50 and the MIC (Escherichia coli SS) was 0.2. It also gave an MIC (Escherichia coli DC-2) of 25 µg/mL (≈ 38.1 µM), an MIC (Candida albicans CCH 442) greater than 100 µg/mL and an MIC [21] of 0.2. For the same compound, the MIC [22] was 0.05, the MIC ([4]; Table 1B) was 2 µg/mL (≈ 3.05 µM) and the MIC ([4]; Table 1C) was 2 µg/mL (≈ 3.05 µM). It also gave an MIC ([5]; Table 1B) of 0.03 µg/mL (≈ 0.0457 µM), an MIC ([5]; Table 1C) of 0.03 µg/mL (≈ 0.0457 µM) and an MIC [23] of 0.03 µg/mL (≈ 0.0457 µM). The MIC ([7]; Table 1B) was 0.5 µg/mL (≈ 0.762 µM) and the MIC ([7]; Table 1C) was 0.5 µg/mL (≈ 0.762 µM).
For `CC[C@H]1OC(=O)[C@@](C)(F)C(=O)[C@H](C)[C@@H](O[C@@H]2O[C@H](C)C[C@H](N(C)C)[C@H]2O)[C@](C)(OC/C=C/c2cnc3ccc(CS(N)(=O)=O)cc3c2)C[C@@H](C)C(=O)[C@H](C)[C@H]2NC(=O)O[C@@]21C` [Example 14], the MIC ([8]; Table 1B) was 0.05 µg/mL (≈ 0.057 µM), the MIC ([9]; Table 1B) was 0.1 and the MIC ([10]; Table 1B) was greater than 100 µg/mL. For the same compound, the MIC [11] was 0.1 µg/mL (≈ 0.114 µM), the MIC [12] was 0.1 µg/mL (≈ 0.114 µM) and the MIC [13] was 0.1 µg/mL (≈ 0.114 µM). The MIC [14] was greater than 100 µg/mL, the MIC [15] was 0.1 and the MIC [16] was 0.1 µg/mL (≈ 0.114 µM). For the same compound, the MIC [17] was no more than 0.005 µg/mL, the MIC [18] was 0.01 µg/mL (≈ 0.0114 µM) and the MIC ([1]; Table 1B) was 0.01 µg/mL (≈ 0.0114 µM). The MIC ([3]; Table 1B) was 0.2 µg/mL (≈ 0.228 µM), the MIC [19] was 0.01 µg/mL (≈ 0.0114 µM) and the MIC [20] was 0.2. It also gave an MIC (Escherichia coli JUHL) of 50, an MIC (Escherichia coli SS) of 0.1 and an MIC (Escherichia coli DC-2) of 100 µg/mL (≈ 114 µM). The MIC (Candida albicans CCH 442) was greater than 100 µg/mL, the MIC [21] was 3.1 and the MIC [22] was 0.1. The MIC ([4]; Table 1B) was 2 µg/mL (≈ 2.28 µM), the MIC ([5]; Table 1B) was no more than 0.004 µg/mL and the MIC [23] was no more than 0.004 µg/mL. It also gave an MIC ([6]; Table 1B) of 2 µg/mL (≈ 2.28 µM) and an MIC ([7]; Table 1B) of 0.25 µg/mL (≈ 0.285 µM).
`CC[C@H]1OC(=O)[C@H](C)C(=O)[C@H](C)[C@@H](O[C@@H]2O[C@H](C)C[C@H](N(C)C)[C@H]2O)[C@](C)(OC/C=C/c2ccc3nccnc3c2)C[C@@H](C)C(=O)[C@H](C)[C@H]2NC(=O)O[C@@]21C` [Standard C, reference compound] showed an MIC ([1]; Table 1D) of 0.03 µg/mL (≈ 0.0391 µM), an MIC ([2]; Table 1D) of 1 µg/mL (≈ 1.3 µM) and an MIC ([3]; Table 1D) of 0.25 µg/mL (≈ 0.326 µM). The MIC ([4]; Table 1D) was 2 µg/mL (≈ 2.61 µM), the MIC ([5]; Table 1D) was 0.015 µg/mL (≈ 0.0196 µM) and the MIC ([6]; Table 1D) was 64 µg/mL (≈ 83.4 µM). It also gave an MIC ([7]; Table 1D) of 0.5 µg/mL (≈ 0.652 µM).
